# System: green peach aphids (Myzus persicae)
# Assay: Pesticidal activity against green peach aphid on cabbage plants after soil treatment
# Type: in vivo
# Conditions: no surfactant added
# Experimental: Each tested compositions was prepared by mixing a predetermined amount of the CLOSER® SC insecticide (a sulfoxaflor concentrate having a sulfoxaflor concentration of 240 g/L) with a predetermined amount of the selected nonionic surfactant in an aqueous medium. Two nonionic surfactants were used in the study: alkyl polyglycoside AGNIQUE® PG 8107 surfactant from Cognis Corporation (C8-C10 alkyl polyglycoside with degree of polymer of 1.7), and PEG-3 tridecyl alcohol ether MAKON® TD3 surfactant from Stepan Company.
# For example, the “Sulfoxaflor at 100 ppm” composition contained about 0.043% weight of sulfoxaflor based on the total weight of the composition (i.e., 100 ppm of sulfoxaflor per one gram of final soil mixture). “Sulfoxaflor at 100 ppm+AGNIQUE®” composition contained about 0.043% weight of sulfoxaflor based on the total weight of the composition (i.e., 100 ppm of sulfoxaflor per one gram of final soil mixture), and about 0.225% weight of alkyl polyglycoside AGNIQUE® PG 8107 surfactant based on the total weight of the composition (i.e., 384 ppm per one gram of the final soil mixture; 1500 ppm per one gram of the total soil liquid).
# The imidacloprid pesticide PROVADO® 1.6 from Bayer CropScience LP (North Carolina, USA) was used as a standard commercial pesticidal composition for aphid control. The imidacloprid pesticide PROVADO® 1.6 was tested at three different loadings: 100 ppm, 25 ppm, and 6.25 ppm per gram of final soil mixture.
# In this EXAMPLE 7, water was tested as a control composition. Furthermore, an aqueous solution of alkyl polyglycoside AGNIQUE® PG 8107 surfactant and an aqueous solution of PEG-3 tridecyl alcohol ether MAKON® TD3 surfactant were tested. […]
# Each of the 1-ounce clear cups was filled with about 30 grams of the inoculated Midwest field soil having the components as shown in TABLE 7. […] The soil moisture of the Midwest field soil was about 15% as measured by Mettler LJ16 Moisture Analyzer (15 minutes and 100° C.). […]
smiles,measurement,setting,value
"C[C@@H](c1ccc(C(F)(F)F)nc1)[S@@](C)(=O)=NC#N (racemic) [Sulfoxaflor, [methyl(oxo) {1-[6-(trifluoromethyl)-3-pyridyl]ethyl}-λ^6-sulfanylidene]cyanamide]",number of live GPA aphids on cabbage plant,"DAT of 21 days, loading 6.25 ppm",about 38
same,number of live GPA aphids on cabbage plant,"DAT of 21 days, loading 100 ppm per gram of final soil mixture",no live GPA aphid
same,number of live GPA aphids on cabbage plant,"DAT of 28 days, sulfoxaflor 100 ppm",no live GPA aphid

# Reference: US20180125073A1, “PESTICIDAL COMPOSITIONS AND RELATED METHODS” (priority 2015, published 2018)
